Results on 7 compounds are retold here after US12384756B2, “Piperidinedione derivatives” (INNOCURE THERAPEUTICS, INC., priority 2021, dated 2025).

The structures appear in SMILES notation.

The target in one assay is T1, CRBN (Homo sapiens, UniProt Q96SW2).
T1 construct: host or cells: HEK 293T
The assay can be described thus: NanoBRET intracellular E3 ligase assay, CRBN binding affinity. The note with it: BRET assay, compared with pomalidomide. The procedure:
The binding affinity of the synthesized compounds to CRBN E3 ligase was measured using PROMEGA NANOBRET™ Intracellular E3 ligase Assay, CRBN [cat #N2910]. Bioluminescence resonance energy transfer (BRET) assay is a method that the transfer of luminescence energy of POI into a bound fluorescent tracer is measured. […] Thus, the affinity of a compound to the POI can be measure.
9.0 mg/ml of DDB1 expression vector and 1.0 mg/ml of NanoLuc-CRBN fusion vector were transfected using LIPOFECTAMINE™ 3000.
Then, the cell lines were treated with a compound prepared at various concentrations, and then mixed for 15 seconds. Then, cell walls were broken by using digitonin, and the mixture was reacted for 25 minutes. Then, the mixture was treated with luciferase substrate. The luminescence intensity and the fluorescence intensity were measure at donor emission wavelength (450 nm) and at acceptor emission wavelength (610 nm), and then BRET ratio was calculated and normalized. BRET ratio was calculated by the following formula: BRET ratio: Acceptor/Donor×1000 [4] CRBN Binding Affinity of the Compound

Another assay concerns the target T2, SHP2 (Homo sapiens, UniProt Q06124).
T2 construct: SHP2 expressed in cells; endogenous in cells; host or cells: MV-4-11
T2 sequence (Q06124 1-593): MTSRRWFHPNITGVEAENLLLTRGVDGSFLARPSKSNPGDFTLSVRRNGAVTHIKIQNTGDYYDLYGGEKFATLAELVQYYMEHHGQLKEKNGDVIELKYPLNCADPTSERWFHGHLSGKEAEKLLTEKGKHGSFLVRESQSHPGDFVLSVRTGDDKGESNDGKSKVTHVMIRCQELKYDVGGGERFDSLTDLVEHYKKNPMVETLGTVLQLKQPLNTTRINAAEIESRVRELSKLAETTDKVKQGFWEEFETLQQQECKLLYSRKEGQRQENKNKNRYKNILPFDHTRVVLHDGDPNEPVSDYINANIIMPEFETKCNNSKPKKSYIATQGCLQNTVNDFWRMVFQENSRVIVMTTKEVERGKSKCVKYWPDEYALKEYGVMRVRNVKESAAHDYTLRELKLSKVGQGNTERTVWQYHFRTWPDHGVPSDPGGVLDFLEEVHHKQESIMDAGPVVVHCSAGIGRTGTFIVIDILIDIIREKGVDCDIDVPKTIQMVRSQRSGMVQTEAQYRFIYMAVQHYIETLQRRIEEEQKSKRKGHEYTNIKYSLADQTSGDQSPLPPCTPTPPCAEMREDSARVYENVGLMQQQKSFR
The assay can be described thus: SHP2 protein degradation by western blot in MV-4-11 cells. It counts as cell-based. The settings on record: MV-4-11, 24 hours; for DC50: 50% inhibition of protein expression, read-out: DC50 of SHP2-targeted PROTAC. The procedure:
(§1) Human hematologic cancer cell line [MV-4-11] was cultured in IMDM medium with 10% fetal bovine serum, penicillin [100 U/ml] and streptomycin [[…]]. The synthesized compound was prepared with a stock solution of 10 mM or 50 mM dissolved in DMSO [dimethyl sulfoxide], and it was sequentially diluted to treat the cell line.
To observe the PROTAC's degradation ability to SHP2 expressed in cells, the cells were aliquoted into a 12 well plate at a concentrations of 3×10^5 cells/well, and then the sample was treated for 24 hours. In order to conduct western blotting assay to confirm protein expression, the cell treated with the compound was treated for 30 minutes with 70 μL of RIPA buffer with wherein protease inhibitor is added. Then, cell lysate was collected on ice using a scraper and centrifuged at 4° C. 15,000 rpm for 30 minutes to obtain a supernatant containing protein. Then, SDS-PAGE is conducted for 10 μg of protein per sample, and the protein is transferred to a membrane. The protein is reacted with antibodies of anti-SHP2 and anti-GAPDH at 4° C. for 16 hours, and then, reacted with the secondary antibodies at room temperature for 1 hour. The protein expression is confirmed using SuperSignal™ West Pico PLUS chemiluminescence substrate and image analyzer. The protein expression inhibition was normalized based on the expression value of GAPDH. The amount of protein expression in each sample was measured based on the sample treated with 0.1% DMSO vehicle which was set to 100%. The amount of protein expression was quantified using the Image J program. The change in the amount of protein expression due to the treatment of compound (DC50: the concentration of compounds where the 50% inhibition of protein expression is achieved) was calculated using GraphicPad Prism 8.0 software.

The subject of assay [1] is Human hematologic cancer cell line [MV-4-11]. The assay can be described thus: Anti-proliferative activity (WST-8) of SHP2 targeted PROTAC in MV-4-11. It counts as cell-based. The settings on record: MV-4-11, 72 hours; for IC50: Homo sapiens, MV4-11, WST-8, read-out: IC50 of SHP2-targeted PROTAC (cell proliferation). On the procedure: as §1
The cell survival was calculated by steps of adding in each well […] of water soluble tetrazolium salt (WST-8) which produces formazon in response to dehydrogenase present in the electron transport chain in mitochondria, incubating for 3 hours, measuring the absorbance at 450 nm, and calculating […] PRISM 8.0 software.

T1 sequence (Q96SW2 whole entry): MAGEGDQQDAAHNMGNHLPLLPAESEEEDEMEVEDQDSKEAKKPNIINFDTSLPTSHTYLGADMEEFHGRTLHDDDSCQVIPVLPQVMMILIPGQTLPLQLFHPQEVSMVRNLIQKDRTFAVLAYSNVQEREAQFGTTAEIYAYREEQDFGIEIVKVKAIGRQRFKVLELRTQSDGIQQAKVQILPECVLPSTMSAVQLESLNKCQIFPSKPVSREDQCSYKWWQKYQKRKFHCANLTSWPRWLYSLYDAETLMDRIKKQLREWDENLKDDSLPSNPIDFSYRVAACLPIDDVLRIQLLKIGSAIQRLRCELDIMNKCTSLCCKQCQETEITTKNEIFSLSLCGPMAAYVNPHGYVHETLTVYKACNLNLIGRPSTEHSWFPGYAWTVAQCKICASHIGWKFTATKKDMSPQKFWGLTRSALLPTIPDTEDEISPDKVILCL
T1 sequence (Q16531 whole entry partner): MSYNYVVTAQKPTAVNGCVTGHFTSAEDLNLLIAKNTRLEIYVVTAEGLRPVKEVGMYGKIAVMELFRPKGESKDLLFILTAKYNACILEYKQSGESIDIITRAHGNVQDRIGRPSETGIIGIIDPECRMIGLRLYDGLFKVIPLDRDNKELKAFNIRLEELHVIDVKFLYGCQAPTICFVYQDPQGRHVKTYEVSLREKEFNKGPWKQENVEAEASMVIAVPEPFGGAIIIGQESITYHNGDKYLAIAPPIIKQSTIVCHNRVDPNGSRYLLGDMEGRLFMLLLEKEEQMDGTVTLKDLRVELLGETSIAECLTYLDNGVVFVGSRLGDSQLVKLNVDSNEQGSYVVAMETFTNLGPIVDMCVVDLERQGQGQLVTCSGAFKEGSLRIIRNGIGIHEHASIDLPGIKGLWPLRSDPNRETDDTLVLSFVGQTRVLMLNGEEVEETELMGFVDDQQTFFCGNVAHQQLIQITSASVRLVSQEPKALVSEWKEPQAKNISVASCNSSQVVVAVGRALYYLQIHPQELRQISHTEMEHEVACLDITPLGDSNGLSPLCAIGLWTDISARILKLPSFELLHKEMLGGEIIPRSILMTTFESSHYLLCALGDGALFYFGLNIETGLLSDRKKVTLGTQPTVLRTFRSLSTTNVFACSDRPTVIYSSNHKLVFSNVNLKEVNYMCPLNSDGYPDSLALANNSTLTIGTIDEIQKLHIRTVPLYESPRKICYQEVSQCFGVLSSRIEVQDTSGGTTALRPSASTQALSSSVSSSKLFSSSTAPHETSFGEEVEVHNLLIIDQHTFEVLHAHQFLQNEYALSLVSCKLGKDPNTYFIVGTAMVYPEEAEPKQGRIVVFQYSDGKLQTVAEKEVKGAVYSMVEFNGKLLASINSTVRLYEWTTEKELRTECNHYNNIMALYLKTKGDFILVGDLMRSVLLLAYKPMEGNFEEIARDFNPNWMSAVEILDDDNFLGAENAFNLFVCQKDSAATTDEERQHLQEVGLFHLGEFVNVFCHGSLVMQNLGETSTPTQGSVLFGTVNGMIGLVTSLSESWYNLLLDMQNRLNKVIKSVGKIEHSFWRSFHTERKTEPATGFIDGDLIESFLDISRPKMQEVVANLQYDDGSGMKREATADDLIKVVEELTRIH

As for `Cc1nn(C2CCC(=O)NC2=O)c(=O)c2c(F)cccc12` (stereo not shown) [Ex. 7, 3-(8-fluoro-4-methyl-1-oxophthalazin-2(1H)-yl)piperidine-2,6-dione], the “CRBN binding affinity (in words)” value on CRBN was “excellent”.

As for `Cc1nn(C2CCC(=O)NC2=O)c(=O)c2c(N)cccc12` (stereo not shown) [Ex. 8, 3-(8-amino-4-methyl-1-oxophthalazin-2(1H)-yl)piperidine-2,6-dione], at CRBN, the “CRBN binding affinity (in words)” value is reported as “excellent”.

For the compound `COc1cccc2cnn(C3CCC(=O)NC3=O)c(=O)c12` (stereo not shown) [Ex. 11, 3-(8-methoxy-1-oxophthalazin-2(1H)-yl)piperidine-2,6-dione], the “CRBN binding affinity (in words)” value on CRBN is on record as “excellent”.

For the compound `C[C@@H]1OCC2(CCN(c3cnc(Sc4cccc(NC(=O)CCC(=O)NCCCOCCOCCOCCCNc5ccc6c(=O)n(C7CCC(=O)NC7=O)ncc6c5)c4Cl)c(N)n3)CC2)[C@@H]1N` (stereo partly drawn) [Example 73, N1-(3-((3-amino-5-((3S,4S)-4-amino-3-methyl-2-oxa-8-azaspiro[4.5]decan-8-yl)pyrazin-2-yl)thio)-2-chlorophenyl)-N4-(3-(2-(2-(3-((2-(2,6-dioxopiperidin-3-yl)-1-oxo-1,2-dihydrophthalazin-6-yl)amino)propoxy)ethoxy)ethoxy)propyl)succinamide], on SHP2, the “SHP2 degradation (in words)” value is listed as “effectively degraded” and the 50% degradation concentration (DC50) is 29.9 nM. Further, in assay [1], the IC50 stood at 507 nM and the “inhibition of cancer cell proliferation (in words)” value (“inhibition” for short) is “inhibited effectively”.

In the case of `C[C@@H]1OCC2(CCN(c3cnc(Sc4cccc(NC(=O)CCC(=O)N5CCN(C(=O)CCOCCOCCOCCOCCNc6cccc7cnn(C8CCC(=O)NC8=O)c(=O)c67)CC5)c4Cl)c(N)n3)CC2)[C@@H]1N` (stereo partly drawn) [Example 77, N-(3-((3-amino-5-((3S,4S)-4-amino-3-methyl-2-oxa-8-azaspiro[4.5]decan-8-yl)pyrazin-2-yl)thio)-2-chlorophenyl)-4-(4-(1-((3-(2,6-dioxopiperidin-3-yl)-4-oxo-3,4-dihydrophthalazin-5-yl)amino)-3,6,9,12-tetraoxapentadecan-15-oyl)piperazin-1-yl)-4-oxobutanamide], at SHP2, the “SHP2 degradation (in words)” value is “effectively degraded” and the DC50 worked out at 70.2 nM. In assay [1], the IC50 amounted to 685 nM and the “inhibition” value was “inhibited effectively”.

On to `C[C@@H]1OCC2(CCN(c3cnc(Sc4cccc(NC(=O)CCC(=O)N5CCN(C(=O)CCOCCOCCOCCOCCOCCNc6cccc7cnn(C8CCC(=O)NC8=O)c(=O)c67)CC5)c4Cl)c(N)n3)CC2)[C@@H]1N` (stereo partly drawn) [Example 78, N-(3-((3-amino-5-((3S,4S)-4-amino-3-methyl-2-oxa-8-azaspiro[4.5]decan-8-yl)pyrazin-2-yl)thio)-2-chlorophenyl)-4-(4-(1-((3-(2,6-dioxopiperidin-3-yl)-4-oxo-3,4-dihydrophthalazin-5-yl)amino)-3,6,9,12,15-pentaoxaoctadecan-18-oyl)piperazin-1-yl)-4-oxobutanamide], for which, at SHP2, the “SHP2 degradation (in words)” value is on record as “effectively degraded” and the 50% degradation concentration (DC50) is 24.1 nM. Moreover, in assay [1], the IC50 came to 422 nM and the “inhibition” value is reported as “inhibited effectively”.

On to `C[C@@H]1OCC2(CCN(c3cnc(Sc4cccc(NC(=O)CCC(=O)N5CCN(C(=O)CCOCCOCCOCCOCCOCCOCCNc6cccc7cnn(C8CCC(=O)NC8=O)c(=O)c67)CC5)c4Cl)c(N)n3)CC2)[C@@H]1N` (stereo partly drawn) [Example 79, N-(3-((3-amino-5-((3S,4S)-4-amino-3-methyl-2-oxa-8-azaspiro[4.5]decan-8-yl)pyrazin-2-yl)thio)-2-chlorophenyl)-4-(4-(1-((3-(2,6-dioxopiperidin-3-yl)-4-oxo-3,4-dihydrophthalazin-5-yl)amino)-3,6,9,12,15,18-hexaoxahenicosane-21-oyl)piperazin-1-yl)-4-oxobutanamide], for which, on SHP2, the “SHP2 degradation (in words)” value is reported as “effectively degraded” and the DC50 came out at 23.6 nM. Besides, in assay [1], the IC50 was 337 nM and the “inhibition” value is on record as “inhibited effectively”.
